IC50 data for one compound are collected here from patent EP4800018A1, “PAN-KRAS INHIBITOR AND USE THEREOF IN MEDICINES” (Betta Pharmaceuticals Co., Ltd., priority 2023, dated 2025).

For this experiment, the target named is T1, KRAS G12D-cRAF (Homo sapiens, UniProt P01116, G12D).
T1 construct: expressed in transfected cells
Briefly: Cellular KRAS G12D-cRAF Binding Inhibition Assay (NanoBRET, AD293 stable cells). Format: cell-based. Conditions: 3 h incubation, read-out: NanoBRET KRAS G12D. In short, it runs like this: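 AD293 cells stably expressing KRAS G12D-NanoLuc and cRAF RBD-HaloTag were seeded at 1×10^4 cells/well with NanoBRET 618 ligand overnight. BRET signal was converted to % inhibition of binding relative to max and blank wells, and IC50 came from curve fitting.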

Each structure is given as a SMILES string.

T1 sequence (P01116 1-188 isoform P01116-2 G12D): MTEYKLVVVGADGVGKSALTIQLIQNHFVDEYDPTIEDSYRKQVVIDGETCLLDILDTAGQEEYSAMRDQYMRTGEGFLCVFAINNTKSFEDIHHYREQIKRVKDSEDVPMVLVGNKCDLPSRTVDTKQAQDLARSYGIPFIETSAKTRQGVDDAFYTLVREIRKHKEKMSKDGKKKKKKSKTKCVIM

Consider `CC1OCCCn2c(c3c4cc(ccc42)-c2csc(n2)CC(NC(=O)C2C(C)C2C)C(=O)N2NC(C(=O)OCC(C)(C)C3)C3CC2C3)-c2cc(N3CCN(C)CC3)cnc21` [Example 186, (1r,2R,3S)-2,3-dimethyl-N-((1^5S,6^4S,4S,Z)-1^5,10,10-trimethyl-1^2-(4-methylpiperazin-1-yl)-5,7-dioxo-1^8,1^9-dihydro-1^5H,1^7H-8-oxa-6^2,6^3-diaza-1(13,15)-pyrido[3',2':7,8][1,5]oxazonino[5,6-a]indola-2(4,2)-thiazola-6(2,4)-bicyclo[3.1.1]heptanacycloundecaphane-4-yl)cyclopropane-1-carbox amide], for which the IC50 was 0.8 nM.
